From PMC11396839, “Structure-Aided Computational Design of Triazole-Based Targeted Covalent Inhibitors of Cruzipain” (Molecules, 2024)
Where two headings read alike, the source gives them in different places.

Tests used:
[1] = molecular target: T1, recombinant CZP (cruzain) (Trypanosoma cruzi, UniProt P25779); assay: CZP inhibition, cleavage of fluorogenic substrate Z-FR-AMC (initial screening and IC50); assay type: biochemical, T. cruzi; conditions: for times lower potency than the most active analogues (Ald-6 and Ald-10): CZP IC50 ratio
T1 construct: gift of Allison Doak and Prof; Brian Shoichet (University of California San Francisco)
Protocol: The previously reported methods were followed to evaluate the in vitro activity against CZP [91, 92, 93, 94]. Allison Doak and Prof. Brian Shoichet (University of California San Francisco, San Francisco, CA, USA) generously provided recombinant CZP (cruzain). The enzyme activity was measured by monitoring the cleavage of the fluorogenic substrate Z-FR-AMC at 25 °C. Unless stated otherwise, assays were performed using 2.5 μ M of substrate ( KM = 0.5 ± 0.1 μ M) and 0.5 nM CZP in a 0.1 M sodium acetate buffer, pH 5.5, 0.01% Triton X-100 and 2 mM β -mercaptoethanol. DMSO and 1 μ M E-64 were employed as negative and positive controls, respectively, in all assays. Fluorescence was monitored at 340/440 nm (excitation/emission) over time in a Biotec 87 Synergy 2 fluorimeter at the Multiuser Laboratory of the Biochemistry and Immunology Department (UFMG, Belo Horizonte, Brazil). All assays were performed in triplicate in two independent experiments.
Initial screening. For the initial screening against CZP, compounds at 100 μ M were tested against CZP with and without a 10min pre-incubation with the enzyme. The fluorescence was monitored for 10 min at 5 s intervals. DMSO and E-64 were employed in all assays as negative and positive controls, respectively. Initial velocities of the negative control (DMSO) were compared to those in the presence of compounds to calculate the percentage of inhibition. The reported values correspond to the mean and standard error of the mean (SEM) of experiments performed in triplicate in two independent experiments.
IC50 determination. Compounds in at least eight distinct compound concentrations (400 μ M, 100 μ M, 25 μ M, 6.25 μ M, 1.5 μ M, 0.4 μ M, 0.1 μ M and 0.025 μ M) were incubated with CZP for 10 min, and once the substrate was added, the fluorescence was monitored for 10 min at 5 s intervals. IC50 curves were obtained from a non-linear fit of the inhibition values versus the logarithmic concentration of the compounds. The reported IC50 values are the mean and SEM of two independent measurements performed in triplicate.

[2] = molecular target: T2, recombinant human cathepsin L (hCatL) (Homo sapiens, UniProt P07711); assay: hCatL screening, cleavage of Z-FR-AMC; assay type: biochemical; conditions: for inhibition at 100 µM: read-out: % hCatL inhib.
T2 construct: purchased Sigma-Aldrich
Protocol: The recombinant human cathepsin L (hCatL) (Sigma-Aldrich) was activated prior to the assays. First, 10 ng/ μ L of the enzyme was incubated in the activation buffer (50 mM MES, pH 6, 1 mM EDTA, 5mM DTT) for 30 min at 37 °C. hCatL activity was measured based on the cleavage of the fluorescent substrate Z-FR-AMC in a Biotec 87 Synergy 2 fluorimeter at the Multiuser Laboratory of the Biochemistry and Immunology Department (UFMG, Brazil). The assays were executed in 96-well round bottom black plates in 50 mM MES buffer, pH 6, containing 1 mM EDTA, 5 mM DTT, 0.001% Triton-X100, 5 pg/ μ L enzyme and 25 μ M Z-FR-AMC at 37 °C. The triazole-based derivatives were tested against hCatL, at 100 μ M, with a 10 min pre-incubation with the enzyme. The initial velocities of the DMSO control were compared to those in the presence of the compounds. Assays were executed in triplicate in two independent experiments, and enzyme activity was measured for 20 min.

[3] = test system: T. cruzi (Tulahuen trypomastigotes overexpressing β-galactosidase) in Vero cells; assay: T. cruzi inhibition assay, infection model in Vero cells, β-galactosidase activity; assay type: cell-based, Trypanosoma cruzi; conditions: 50 μM (Ald-4 20 μM)
Protocol: To perform the assay, the drug screening method reported by Buckner et al. was adapted. Vero cells were seeded at 1 × 10^4 per well on 96-well culture plates in 100 μ L MEM-5% FBS. Tulahuen trypomastigotes overexpressing the E. coli β -galactosidase protein were distributed in triplicates on the plate. After a 2 h incubation at 37 °C, the culture media were extracted and replaced with fresh MEM-5% FBS with 1 μ M, 10 μ M or 50 μ M solutions of the triazole-based inhibitors, and the plate was incubated another 72 h at 37 °C. Ninety-six hours post infection, the cell culture media were removed and cells and intracellular amastigotes were lysed in 100 μ L lysis buffer (25 mM Tris pH 8, 2 mM EDTA, 2 mM DTT, 1% Triton X-100, 10% glycerol in ultrapure MQ water) for 10 min at 37 °C. Then, 100 μ L 2× reaction buffer (200 mM sodium phosphate pH 8, 2 mM MgCl2, 100 mM 2-mercaptoethanol and 1.33 mg.mL^−1 o-nitrophenyl- β -galactoside (ONPG)) was added and the reaction was allowed to proceed until a yellow color developed (1–2 h at 37 °C). The absorbance at 420 nm was measured in a Synergy HTX multi-mode microplate reader (Biotek Instruments, Winooski, VT, USA) and normalized to the value obtained for the infection in the absence of inhibitors. To determine its IC50, Ald-6 was evaluated at nine different concentrations (0.098, 0.195, 0.39, 0.78, 1.56 3.13 6.25, 12.5 and 50.0 μ M), following the same protocol. Each infection condition and inhibitor were tested in triplicates in four independent experiments.

[4] = 100 μM, 10 min pre-incubation of the enzyme with compound, read-out: % CZP inh.
[5] = 10 min incubation with CZP, mean ± SEM of two independent experiments, read-out: IC50 (μM) against CZP

T1 sequence (P25779 123-337): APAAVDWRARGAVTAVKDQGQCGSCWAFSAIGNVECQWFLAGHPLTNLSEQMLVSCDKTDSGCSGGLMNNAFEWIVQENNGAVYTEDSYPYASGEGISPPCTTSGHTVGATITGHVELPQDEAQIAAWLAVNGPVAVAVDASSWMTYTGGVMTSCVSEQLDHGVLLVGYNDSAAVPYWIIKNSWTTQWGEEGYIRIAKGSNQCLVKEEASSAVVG
T2 sequence (P07711 114-333): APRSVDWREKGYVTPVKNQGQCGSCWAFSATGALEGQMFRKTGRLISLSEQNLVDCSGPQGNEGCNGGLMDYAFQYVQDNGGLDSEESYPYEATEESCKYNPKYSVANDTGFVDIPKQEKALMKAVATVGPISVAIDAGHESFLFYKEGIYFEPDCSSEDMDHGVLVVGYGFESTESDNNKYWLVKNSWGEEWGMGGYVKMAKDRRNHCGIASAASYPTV

| Structure (SMILES) | inhibition at 100 µM [1, 4] [%] | further results |
| --- | --- | --- |
| O=CC(Cc1ccccc1)n1cc(C(NCc2ccc3c(c2)OCO3)C2CCCCC2)nn1 (stereo not shown) [Ald-1] | 64 ± 5 | IC50 [1]: 41 ± 4 µM; times lower potency than the most active analogues (Ald-6 and Ald-10) [1]: 12.4; selectivity for CZP over hCatL in words ([2]; 100 μM): selective CZP inhibitors; inhibition at 100 µM ([2]; 10 min incubation): 0% |
| O=CC(CCC(=O)O)n1cc(C(NCc2ccc3c(c2)OCO3)C2CCCCC2)nn1 (stereo not shown) [Ald-3] | 8 ± 2 | CZP inhibitory activity in words [1]: not active at all |
| O=CC(Cc1c[nH]cn1)n1cc(C(NCc2ccc3c(c2)OCO3)C2CCCCC2)nn1 (stereo not shown) [Ald-4] | 83 ± 2 | IC50 [1, 5]: 5 ± 2 µM; selectivity for CZP over hCatL in words ([2]; 100 μM): selective CZP inhibitors; inhibition at 100 µM ([2]; 10 min incubation): 10 ± 3%; anti-T. cruzi/cytotoxicity balance in words [3]: acceptable anti-T. cruzi/cytotoxicity balance |
| CC(C)CC(C=O)n1cc(C(NCc2ccc3c(c2)OCO3)C2CCCCC2)nn1 (stereo not shown) [Ald-5] | 64 ± 2 | IC50 [1]: 7 ± 2 µM; selectivity for CZP over hCatL in words ([2]; 100 μM): selective CZP inhibitors; inhibition at 100 µM ([2]; 10 min incubation): 24 ± 9% |
| CSCCC(C=O)n1cc(C(NCc2ccc3c(c2)OCO3)C2CCCCC2)nn1 (stereo not shown) [Ald-7] | 42 ± 7 |  |
| O=CC(c1ccccc1)n1cc(C(NCc2ccc3c(c2)OCO3)C2CCCCC2)nn1 (stereo not shown) [Ald-9] | 11 ± 3 |  |
| CC(O)C(C=O)n1cc(C(NCc2ccc3c(c2)OCO3)C2CCCCC2)nn1 (stereo not shown) [Ald-11] | 58 ± 4 |  |
| O=CC(Cc1c[nH]c2ccccc12)n1cc(C(NCc2ccc3c(c2)OCO3)C2CCCCC2)nn1 (stereo not shown) [Ald-12] | 56 ± 7 | IC50 [1, 5]: 45.4 ± 0.3 µM; times lower potency than the most active analogues (Ald-6 and Ald-10) [1]: 13.8; selectivity for CZP over hCatL in words ([2]; 100 μM): selective CZP inhibitors; inhibition at 100 µM ([2]; 10 min incubation): 0% |
| O=CC(Cc1ccc(O)cc1)n1cc(C(NCc2ccc3c(c2)OCO3)C2CCCCC2)nn1 (stereo not shown) [Ald-13] | 83 ± 2 | IC50 [1, 5]: 13 ± 5 µM; times lower potency than the most active analogues (Ald-6 and Ald-10) [1]: 3.9; selectivity for CZP over hCatL in words ([2]; 100 μM): selective CZP inhibitors; inhibition at 100 µM ([2]; 10 min incubation): 0% |
| O=CC(Cc1ccccc1)n1cc(C(C2CCCCC2)N2CCc3ccccc3C2)nn1 (stereo not shown) [Ald-16] | 34 ± 5 |  |
| O=CC(Cc1c[nH]cn1)n1cc(C(C2CCCCC2)N2CCc3ccccc3C2)nn1 (stereo not shown) [Ald-17] | 38 ± 6 |  |
| CSCCC(C=O)n1cc(C(C2CCCCC2)N2CCc3ccccc3C2)nn1 (stereo not shown) [Ald-18] | 16 ± 4 |  |
| O=CC(c1ccccc1)n1cc(C(C2CCCCC2)N2CCc3ccccc3C2)nn1 (stereo not shown) [Ald-19] | 3 ± 10 |  |
| CC(O)C(C=O)n1cc(C(C2CCCCC2)N2CCc3ccccc3C2)nn1 (stereo not shown) [Ald-21] | 8 ± 7 |  |
| O=CC(Cc1c[nH]c2ccccc12)n1cc(C(C2CCCCC2)N2CCc3ccccc3C2)nn1 (stereo not shown) [Ald-22] | 55 ± 9 |  |
| CC(C)C[C@H](NC(=O)[C@H]1O[C@@H]1C(=O)O)C(=O)NCCCCN=C(N)N [E-64, reference compound] |  | CZP inhibition by positive control ([1]; 1 μM, 10 min preincubation): 98%; % CZP inh. ([1]; 100 μM, 10 min pre-incubation of the enzyme with compound): 98 ± 2%; % CZP inhib. wo/inc. ([1]; 100 μM, without prior incubation): 12± 8%; % hCatL inhib. ([2]; 100 μM, 10 min incubation): 97 ± 3% |
| COC(=O)[C@H](Cc1ccccc1)n1cc(C(NCc2ccc3c(c2)OCO3)C2CCCCC2)nn1 (stereo partly shown) [Es-1] | 15 ± 2 |  |
| COC(=O)C(C(C)C)n1cc(C(NCc2ccc3c(c2)OCO3)C2CCCCC2)nn1 (stereo not shown) [Es-2] | 9 ± 7 |  |
| COC(=O)C(CCC(=O)O)n1cc(C(NCc2ccc3c(c2)OCO3)C2CCCCC2)nn1 (stereo not shown) [Es-3] | 8 ± 7 |  |

| Structure (SMILES) | inhibition at 100 µM [1, 4] [%] | further results |
| --- | --- | --- |
| COC(=O)C(Cc1c[nH]cn1)n1cc(C(NCc2ccc3c(c2)OCO3)C2CCCCC2)nn1 (stereo not shown) [Es-4] | 5 ± 4 |  |
| COC(=O)C(CC(C)C)n1cc(C(NCc2ccc3c(c2)OCO3)C2CCCCC2)nn1 (stereo not shown) [Es-5] | 5 ± 2 |  |
| COC(=O)[C@H](CCCCN)n1cc(C(NCc2ccc3c(c2)OCO3)C2CCCCC2)nn1 (stereo partly shown) [Es-6] | 9 ± 2 |  |
| COC(=O)C(C)n1cc(C(NCc2ccc3c(c2)OCO3)C2CCCCC2)nn1 (stereo not shown) [Es-8] | 8 ± 7 |  |
| COC(=O)C(c1ccccc1)n1cc(C(NCc2ccc3c(c2)OCO3)C2CCCCC2)nn1 (stereo not shown) [Es-9] | 6 ± 5 |  |
| COC(=O)C(CO)n1cc(C(NCc2ccc3c(c2)OCO3)C2CCCCC2)nn1 (stereo not shown) [Es-10] | ≥ 47 | inhibition at 100 µM ([1]; read-out: % CZP inhib. wo/inc., 100 μM, without prior incubation): 43 ± 4% |
| COC(=O)C(C(C)O)n1cc(C(NCc2ccc3c(c2)OCO3)C2CCCCC2)nn1 (stereo not shown) [Es-11] | 0 |  |
| COC(=O)C(Cc1c[nH]c2ccccc12)n1cc(C(NCc2ccc3c(c2)OCO3)C2CCCCC2)nn1 (stereo not shown) [Es-12] | 15 ± 2 |  |
| COC(=O)C(Cc1ccc(O)cc1)n1cc(C(NCc2ccc3c(c2)OCO3)C2CCCCC2)nn1 (stereo not shown) [Es-13] | 8 ± 1 |  |
| CCOC(=O)C(Cc1ccccc1)n1cc(C(C2CCCCC2)N2CCc3ccccc3C2)nn1 (stereo not shown) [Es-16] | 13 ± 6 |  |
| COC(=O)C(Cc1c[nH]cn1)n1cc(C(C2CCCCC2)N2CCc3ccccc3C2)nn1 (stereo not shown) [Es-17] | 6 ± 3 |  |
| CCOC(=O)C(CCSC)n1cc(C(C2CCCCC2)N2CCc3ccccc3C2)nn1 (stereo not shown) [Es-18] | 0 |  |
| COC(=O)C(c1ccccc1)n1cc(C(C2CCCCC2)N2CCc3ccccc3C2)nn1 (stereo not shown) [Es-19] | 0 |  |
| COC(=O)C(CO)n1cc(C(C2CCCCC2)N2CCc3ccccc3C2)nn1 (stereo not shown) [Es-20] | 5 ± 4 |  |
| COC(=O)C(C(C)O)n1cc(C(C2CCCCC2)N2CCc3ccccc3C2)nn1 (stereo not shown) [Es-21] | 0 |  |
| COC(=O)C(Cc1c[nH]c2ccccc12)n1cc(C(C2CCCCC2)N2CCc3ccccc3C2)nn1 (stereo not shown) [Es-22] | 1 ± 6 |  |
| COC(=O)C(Cc1ccc(O)cc1)n1cc(C(C2CCCCC2)N2CCc3ccccc3C2)nn1 (stereo not shown) [Es-23] | 1 ± 14 |  |
| COC(=O)C(CCCNC(=N)N)n1cc(C(C2CCCCC2)N2CCc3ccccc3C2)nn1 (stereo not shown) [Es-24] | 6 ± 1 |  |
